Series [1] relates to rat. As to conditions: Sub-acute dermal toxicity, sprague dawley, Topical, dose end: 21 day, group: systemic, systemic / in life observation / clinical signs / desquamation + systemic / in life observation / clinical signs / erythema + systemic / ….
For series [2], the system named is rat. As to conditions: Prenatal developmental toxicity study, fischer, Oral, Gavage/Intubation, dose end: 15 GD.
The subject of series [3] is rabbit. As to conditions: Prenatal developmental toxicity study, new zealand white, Oral, Capsule, dose end: 18 GD.
Another series deals with mouse. As to conditions: Subchronic oral toxicity in rodents, cd1, Feed, dose end: 13 week, group: systemic.
A further series relates to dog. As to conditions: Chronic toxicity; beagle; Oral; Feed; dose end: 52 week; group: systemic; systemic / clinical chemistry / albumin / albumin + systemic / clinical chemistry / calcium / calcium + systemic / clinical chemistry / ….
Series [4] concerns rat. As to conditions: Subchronic oral toxicity in rodents, Feed, dose end: 13 week, group: systemic.
Series [5] concerns rat. As to conditions: Subchronic oral toxicity in rodents, other, Feed, dose end: 13 week, group: systemic, systemic / clinical chemistry / urea nitrogen / urea.
The subject of series [6] is rabbit. The following applies: Prenatal developmental toxicity study, new zealand white, Dermal, Topical, dose end: 18 GD.
[7] abbreviates: group: developmental, developmental / developmental malformation / bone / ossification sites + developmental / developmental malformation / bone / supernumerary.
[8] abbreviates: group: maternal, systemic / in life observation / body weight / body weight.
Where [9] appears, read: group: developmental, developmental / developmental malformation / bone / supernumerary + developmental / developmental malformation / gallbladder / [other] + ….
The mark [10] stands for this setting: group: maternal, reproductive / reproductive performance / aborted / aborted + reproductive / reproductive performance / postimplantation loss / ….
Setting [11] is: group: maternal, systemic / in life observation / body weight / body weight + systemic / in life observation / body weight / body weight gain + systemic / in….
The mark [12] stands for this setting: systemic / in life observation / body weight / body weight.
Setting [13] is: systemic / in life observation / body weight / body weight + systemic / organ weight / liver / relative to body weight.
Where [14] appears, read: systemic / in life observation / body weight / body weight + systemic / clinical chemistry / urea nitrogen / urea + systemic / urinalysis / ….
Setting [15] is: group: developmental, developmental / developmental malformation / bone / supernumerary + developmental / developmental malformation / bone / unossified + ….
Setting [16] is: group: maternal, systemic / in life observation / body weight / body weight gain.

This is an account of results in EPA's ToxRefDB 2.

The term LOAEL denotes the lowest dose or exposure tested at which an adverse effect was seen. Broadly, the NOAEL is the highest dose or exposure tested at which no adverse effect was seen.

Where only a bound is given, the exact number is not on record here.

Consider `ClCCCCCCCl` [1,6-Dichlorohexane], for which, in the series on rat [1], the LEL amounted to 100 mg/kg/day, the LOAEL was determined as 100 mg/kg/day, the NEL was less than 100 mg/kg/day and the NOAEL was less than 100 mg/kg/day.

For `CCNc1nc(Cl)nc(NC(C)(C)C#N)n1` [Cyanazine], the LEL was found to be 5 mg/kg/day with rat [2] (setting [7]); 5 mg/kg/day in the series on rat [2] (setting [8]); 1 mg/kg/day with rabbit [3] (setting [9]); 1 mg/kg/day in the series on rabbit [3] (setting [11]); 75 mg/kg/day in the series on mouse (setting [13]); 3.02 mg/kg/day with dog. In addition, the LEL in the series on rat [4] (setting [14]) stood at 0.005 mg/kg/day; in the series with rat [5] it was 0.075 mg/kg/day; in the series with rabbit [6] (group: developmental, systemic / in life observation / body weight / fetal weight) it was 573 mg/kg/day; with rabbit [6] (setting [16]), 96 mg/kg/day. In addition, the lowest-observed-adverse-effect level (LOAEL) was determined as 5 mg/kg/day with rat [2] (setting [7]); 5 mg/kg/day in the series on rat [2] (setting [8]); 2 mg/kg/day in the series with rabbit [3] (group: developmental, developmental / developmental malformation / bone / absent + developmental / developmental malformation / bone / supernumerary); 2 mg/kg/day in the series on rabbit [3] (setting [10]); 75 mg/kg/day in the series on mouse (setting [12]); 3.02 mg/kg/day with dog. For the same compound, the LOAEL was found to be 0.005 mg/kg/day with rat [4] (setting [12]); 0.075 mg/kg/day with rat [5]; 955 mg/kg/day in the series on rabbit [6] (group: developmental, developmental / developmental malformation / bone / supernumerary + developmental / developmental malformation / bone / unossified); 96 mg/kg/day in the series on rabbit [6] (setting [16]). Further, the NEL is less than 5 mg/kg/day with rat [2] (setting [7]); less than 5 mg/kg/day in the series on rat [2] (setting [8]); less than 1 mg/kg/day in the series on rabbit [3] (setting [9]); less than 1 mg/kg/day in the series with rabbit [3] (setting [11]); 7.5 mg/kg/day with mouse (setting [13]); 0.72 mg/kg/day in the series on dog. The NEL was less than 0.005 mg/kg/day in the series with rat [4] (setting [14]), less than 0.075 mg/kg/day in the series on rat [5], 286 mg/kg/day in the series with rabbit [6] (setting [15]) and less than 96 mg/kg/day with rabbit [6] (setting [16]). Also, the NOAEL with rat [2] (setting [7]) is less than 5 mg/kg/day; in the series on rat [2] (setting [8]), less than 5 mg/kg/day; in the series with rabbit [3] (group: developmental, developmental / developmental malformation / bone / absent + developmental / developmental malformation / bone / supernumerary + …), 1 mg/kg/day; in the series on rabbit [3] (setting [10]) it was 1 mg/kg/day; in the series with mouse (setting [13]) it was 7.5 mg/kg/day; in the series on dog it was 0.72 mg/kg/day. Also, the NOAEL was less than 0.005 mg/kg/day in the series on rat [4] (setting [12]), less than 0.075 mg/kg/day in the series on rat [5], 573 mg/kg/day in the series with rabbit [6] (setting [15]) and less than 96 mg/kg/day with rabbit [6] (setting [16]).
